Experimental data: EP2144607B1, “COMPOSITIONS FOR CONTRIBUTING TO THE TREATMENT OF CANCERS” (Spectrum Pharmaceuticals, Inc., priority 2007, dated 2008)

Tested on: SK-OV3 cells
Experiment: preclinical efficacy study on the human ovarian tumor model in mice (tumor volume)
Assay type: in vivo
Conditions: via tail vein once every three days, 4 doses, measured every third day through the 22nd day
Procedure: A preclinical efficacy study was conducted on the human ovarian tumor model in mice. The tumor cells used were SK-OV3 cells purchased from ATCC. The mice were 4-6 week old Athymic (nu+/nu+) female mice. The IRL-1620 was intravenously-infused slowly (over 30 seconds).
A solid tumor was induced in each animal using 3 million viable SK-OV3 cells suspended in 200 µl of PBS per animal. After 10 days, when established tumors of 100 mm^3 in diameter were detectable, the mice randomly were divided into six groups of 6 animals per group with each group receiving different treatments. The treatment regimens were administered via the tail vein every third day for a total of 4 doses. […]
The effect of these treatments on the tumor size was measured using a digital caliper for a total of 12 days after drug administration. The mice were monitored and weighed on every third day. […] Progression, stasis, partial regression or complete regression of tumor growth were measured by tumor load measurements with calipers and was calculated using the following formula: (3.14/6) x larger diameter x smaller diameter.

Structure (SMILES) | tumor volume (Figure 1, cisplatin 2.5 mg/kg with saline or IRL-1620 3 nmol/kg) | tumor volume (Figure 3, cyclophosphamide 75 mg/kg with saline or IRL-1620 3 nmol/kg)
N.N.[Cl][Pt][Cl] [saline/cisplatin, cisplatin] | significant reduction in tumor volume | –
O=P1(N(CCCl)CCCl)NCCCO1 (centres unmarked) [saline/cyclophosphamide, cyclophosphamide] | – | significant reduction in tumor volume
